Source: US20160297833A1, “THIENOPYRIMIDINES AS MKNK1 AND MKNK2 INHIBITORS” (BAYER PHARMA AKTIENGESELLSCHAFT, priority 2013, published 2016)

The molecules below were run against T1, human full-length MKNK1 (Homo sapiens, UniProt Q9BUB5, T385D) (assay: MKNK1 kinase high ATP assay (TR-FRET)). Conditions: not given.
T1 construct: GST (N); purchased Carna Biosciences 02-145; host or cells: insect cells (baculovirus expression system)
Type: biochemical
In short: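 Full-length human MKNK1 (T385D) preincubated 15 min at 22 °C with compound in HEPES pH 7.5/MgCl2/DTT buffer; reaction with 2 mM ATP (final) and 0.06 μM biotinylated peptide (final), 30 min at 22 °C.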

T1 sequence (Q9BUB5 1-424 isoform Q9BUB5-2 T344D): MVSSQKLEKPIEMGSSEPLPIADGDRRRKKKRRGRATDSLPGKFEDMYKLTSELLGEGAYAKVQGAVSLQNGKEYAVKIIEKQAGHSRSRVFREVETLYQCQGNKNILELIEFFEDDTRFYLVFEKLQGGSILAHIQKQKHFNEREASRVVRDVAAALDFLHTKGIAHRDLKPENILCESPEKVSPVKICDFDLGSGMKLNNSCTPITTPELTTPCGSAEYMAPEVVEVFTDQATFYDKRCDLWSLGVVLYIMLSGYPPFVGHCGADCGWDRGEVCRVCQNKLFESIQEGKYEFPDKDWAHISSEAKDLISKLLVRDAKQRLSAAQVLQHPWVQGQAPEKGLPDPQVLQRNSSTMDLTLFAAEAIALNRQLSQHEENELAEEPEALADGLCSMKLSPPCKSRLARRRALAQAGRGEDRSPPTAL

For CCOc1cc2[nH]ncc2cc1Nc1ncnc2sc3c(c12)CC[C@@H](C(=O)N1CCC(=O)CC1)C3 [Example 69, 1-({(7R)-4-[(6-Ethoxy-1H-indazol-5-yl)amino]-5,6,7,8-tetrahydro[1]benzothieno[2,3-d]pyrimidin-7-yl}carbonyl)piperidin-4-one], the IC50 was 2.5 nM.

Same assay, conditions: Table 1; MKNK1 kinase high ATP assay, 2 mM ATP; read-out: MKNK1 IC50

Going from CCOc1cc2[nH]ncc2cc1Nc1ncnc2sc3c(c12)CC[C@H](C(=O)N1C[C@@H]2C[C@H]1CO2)C3 [Example 70, {(7S)-4-[(6-Ethoxy-1H-indazol-5-yl)amino]-5,6,7,8-tetrahydro[1]benzothieno[2,3-d]pyrimidin-7-yl}[(1S,4S)-2-oxa-5-azabicyclo[2.2.1]hept-5-yl]methanone] to CCOc1cc2[nH]ncc2cc1Nc1ncnc2sc3c(c12)CC[C@H](C(=O)N1C[C@H]2C[C@@H]1CO2)C3 [Example 71, {(7S)-4-[(6-Ethoxy-1H-indazol-5-yl)amino]-5,6,7,8-tetrahydro[1]benzothieno[2,3-d]pyrimidin-7-yl}[(1R,4R)-2-oxa-5-azabicyclo[2.2.1]hept-5-yl]methanone], the IC50 rises from 0.4 nM to 0.9 nM (2.2-fold).

Going from CCOc1cc2[nH]ncc2cc1Nc1ncnc2sc3c(c12)CC[C@H](C(=O)N1CC2(COC2)C1)C3 [Example 72, {(7S)-4-[(6-Ethoxy-1H-indazol-5-yl)amino]-5,6,7,8-tetrahydro[1]benzothieno[2,3-d]pyrimidin-7-yl}(2-oxa-6-azaspiro[3.3]hept-6-yl)methanone] to CC(C)Oc1cc2[nH]ncc2cc1Nc1ncnc2sc3c(c12)CC[C@H](C(=O)N1CC2(COC2)C1)C3 [Example 88, 2-Oxa-6-azaspiro[3.3]hept-6-yl[(7S)-4-{[6-(propan-2-yloxy)-1H-indazol-5-yl]amino}-5,6,7,8-tetrahydro[1]benzothieno[2,3-d]pyrimidin-7-yl]methanone], the IC50 falls from 0.7 nM to 0.4 nM (1.7-fold). The second is the more potent here.

Going from CCOc1cc2[nH]ncc2cc1Nc1ncnc2sc3c(c12)CC[C@H](C(=O)N(C)CCO)C3 [Example 73, (7S)-4-[(6-Ethoxy-1H-indazol-5-yl)amino]-N-(2-hydroxyethyl)-N-methyl-5,6,7,8-tetrahydro[1]benzothieno[2,3-d]pyrimidine-7-carboxamide] to CC(C)Oc1cc2[nH]ncc2cc1Nc1ncnc2sc3c(c12)CC[C@H](C(=O)N(C)CCO)C3 [Example 90, (7S)—N-(2-Hydroxyethyl)-N-methyl-4-{[6-(propan-2-yloxy)-1H-indazol-5-yl]amino}-5,6,7,8-tetrahydro[1]benzothieno[2,3-d]pyrimidine-7-carboxamide], the IC50 rises from 0.3 nM to 0.6 nM (2-fold).

Going from CCOc1cc2[nH]ncc2cc1Nc1ncnc2sc3c(c12)CC[C@H](C(=O)N(C)CC(C)(C)O)C3 [Example 74, (7S)-4-[(6-Ethoxy-1H-indazol-5-yl)amino]-N-(2-hydroxy-2-methylpropyl)-N-methyl-5,6,7,8-tetrahydro[1]benzothieno[2,3-d]pyrimidine-7-carboxamide] to CCCOc1cc2[nH]ncc2cc1Nc1ncnc2sc3c(c12)CC[C@H](C(=O)N(C)C)C3 [Example 94, (7S)—N,N-Dimethyl-4-[(6-propoxy-1H-indazol-5-yl)amino]-5,6,7,8-tetrahydro[1]benzothieno[2,3-d]pyrimidine-7-carboxamide], the IC50 rises from 0.2 nM to 4.8 nM (24-fold).

CCOc1cc2[nH]ncc2cc1Nc1ncnc2sc3c(c12)CC[C@H](C(=O)N1C[C@@H](O)[C@H](O)C1)C3 [Example 75, [(3R,4R)-3,4-Dihydroxypyrrolidin-1-yl]{(7S)-4-[(6-ethoxy-1H-indazol-5-yl)amino]-5,6,7,8-tetrahydro[1]benzothieno[2,3-d]pyrimidin-7-yl}methanone] and CCOc1cc2[nH]ncc2cc1Nc1ncnc2sc3c(c12)CC[C@H](C(=O)N1C[C@H](O)[C@@H](O)C1)C3 [Example 76, [(3S,4S)-3,4-Dihydroxypyrrolidin-1-yl]{(7S)-4-[(6-ethoxy-1H-indazol-5-yl)amino]-5,6,7,8-tetrahydro[1]benzothieno[2,3-d]pyrimidin-7-yl}methanone] are within 1.5-fold of each other in IC50: 0.3 nM for the first, 0.4 nM for the second.

CCOc1cc2[nH]ncc2cc1Nc1ncnc2sc3c(c12)CC[C@H](C(=O)N(CCO)CCO)C3 [Example 77, (7S)-4-[(6-Ethoxy-1H-indazol-5-yl)amino]-N,N-bis(2-hydroxyethyl)-5,6,7,8-tetrahydro[1]benzothieno[2,3-d]pyrimidine-7-carboxamide] and CC(C)Oc1cc2[nH]ncc2cc1Nc1ncnc2sc3c(c12)CC[C@H](C(=O)N(CCO)CCO)C3 [Example 91, (7S)—N,N-bis(2-Hydroxyethyl)-4-{[6-(propan-2-yloxy)-1H-indazol-5-yl]amino}-5,6,7,8-tetrahydro[1]benzothieno[2,3-d]pyrimidine-7-carboxamide] are the same in IC50: 0.1 nM for the first, 0.1 nM for the second.

Going from CC(C)Oc1cc2[nH]ncc2cc1Nc1ncnc2sc3c(c12)CC[C@H](C(=O)N(C)C)C3 [Example 78, (7S)—N,N-Dimethyl-4-{[6-(propan-2-yloxy)-1H-indazol-5-yl]amino}-5,6,7,8-tetrahydro[1]benzothieno[2,3-d]pyrimidine-7-carboxamide] to CC(C)Oc1cc2[nH]ncc2cc1Nc1ncnc2sc3c(c12)CC[C@@H](C(=O)N(C)C)C3 [Example 79, (7R)—N,N-Dimethyl-4-{[6-(propan-2-yloxy)-1H-indazol-5-yl]amino}-5,6,7,8-tetrahydro[1]benzothieno[2,3-d]pyrimidine-7-carboxamide], the IC50 rises from 0.3 nM to 12.1 nM (40-fold). The first is the more potent here.

CCN(C(=O)[C@H]1CCc2c(sc3ncnc(Nc4cc5cn[nH]c5cc4OC(C)C)c23)C1)C(C)C [Example 80, (7S)—N-Ethyl-N-(propan-2-yl)-4-{[6-(propan-2-yloxy)-1H-indazol-5-yl]amino}-5,6,7,8-tetrahydro[1]benzothieno[2,3-d]pyrimidine-7-carboxamide] and CC(C)Oc1cc2[nH]ncc2cc1Nc1ncnc2sc3c(c12)CC[C@H](C(=O)N(C)CC(F)F)C3 [Example 81, (7S)—N-(2,2-Difluoroethyl)-N-methyl-4-{[6-(propan-2-yloxy)-1H-indazol-5-yl]amino}-5,6,7,8-tetrahydro[1]benzothieno[2,3-d]pyrimidine-7-carboxamide] are the same in IC50: 0.3 nM for the first, 0.3 nM for the second.

First: CC(C)Oc1cc2[nH]ncc2cc1Nc1ncnc2sc3c(c12)CC[C@@H](C(=O)N(C)CC(F)F)C3 [Example 82, (7R)—N-(2,2-Difluoroethyl)-N-methyl-4-{[6-(propan-2-yloxy)-1H-indazol-5-yl]amino}-5,6,7,8-tetrahydro[1]benzothieno[2,3-d]pyrimidine-7-carboxamide]
Second: CC(C)Oc1cc2[nH]ncc2cc1Nc1ncnc2sc3c(c12)CC[C@H](C(=O)N1CCCC1)C3 [Example 83, [(7S)-4-{[6-(Propan-2-yloxy)-1H-indazol-5-yl]amino}-5,6,7,8-tetrahydro[1]benzothieno[2,3-d]pyrimidin-7-yl](pyrrolidin-1-yl)methanone]
The IC50 of the first is 27-fold higher: 8.1 nM for the first, 0.3 nM for the second. The second is the more potent here.

CC(C)Oc1cc2[nH]ncc2cc1Nc1ncnc2sc3c(c12)CC[C@H](C(=O)N1CCOC[C@@H]1C)C3 [Example 84, [(3S)-3-Methylmorpholin-4-yl][(7S)-4-{[6-(propan-2-yloxy)-1H-indazol-5-yl]amino}-5,6,7,8-tetrahydro[1]benzothieno[2,3-d]pyrimidin-7-yl]methanone] and CC(C)Oc1cc2[nH]ncc2cc1Nc1ncnc2sc3c(c12)CC[C@H](C(=O)N1CCOC[C@H]1C)C3 [Example 85, [(3R)-3-Methylmorpholin-4-yl][(7S)-4-{[6-(propan-2-yloxy)-1H-indazol-5-yl]amino}-5,6,7,8-tetrahydro[1]benzothieno[2,3-d]pyrimidin-7-yl]methanone] are within 1.5-fold of each other in IC50: 0.7 nM for the first, 0.6 nM for the second.

Compared with CC(C)Oc1cc2[nH]ncc2cc1Nc1ncnc2sc3c(c12)CC[C@H](C(=O)N1C[C@@H]2C[C@H]1CO2)C3 [Example 86, (1S,4S)-2-Oxa-5-azabicyclo[2.2.1]hept-5-yl[(7S)-4-{[6-(propan-2-yloxy)-1H-indazol-5-yl]amino}-5,6,7,8-tetrahydro[1]benzothieno[2,3-d]pyrimidin-7-yl]methanone], CC(C)Oc1cc2[nH]ncc2cc1Nc1ncnc2sc3c(c12)CC[C@H](C(=O)N1C[C@H]2C[C@@H]1CO2)C3 [Example 87, (1R,4R)-2-Oxa-5-azabicyclo[2.2.1]hept-5-yl[(7S)-4-{[6-(propan-2-yloxy)-1H-indazol-5-yl]amino}-5,6,7,8-tetrahydro[1]benzothieno[2,3-d]pyrimidin-7-yl]methanone] is 2-fold lower in IC50: 0.6 nM for the first, 0.3 nM for the second. The second is the more potent here.

Compared with CC(C)Oc1cc2[nH]ncc2cc1Nc1ncnc2sc3c(c12)CC[C@@H](C(=O)N1CC2(COC2)C1)C3 [Example 89, 2-Oxa-6-azaspiro[3.3]hept-6-yl[(7R)-4-{[6-(propan-2-yloxy)-1H-indazol-5-yl]amino}-5,6,7,8-tetrahydro[1]benzothieno[2,3-d]pyrimidin-7-yl]methanone], CC(C)Oc1cc2[nH]ncc2cc1Nc1ncnc2sc3c(c12)CC[C@H](C(=O)N1C[C@H](O)[C@@H](O)C1)C3 [Example 92, [(3S,4S)-3,4-Dihydroxypyrrolidin-1-yl][(7S)-4-{[6-(propan-2-yloxy)-1H-indazol-5-yl]amino}-5,6,7,8-tetrahydro[1]benzothieno[2,3-d]pyrimidin-7-yl]methanone] is 30-fold lower in IC50: 6 nM for the first, 0.2 nM for the second.

Compared with CC(C)Oc1cc2[nH]ncc2cc1Nc1ncnc2sc3c(c12)CC[C@H](C(=O)N1C[C@@H](O)[C@H](O)C1)C3 [Example 93, [(3R,4R)-3,4-Dihydroxypyrrolidin-1-yl][(7S)-4-{[6-(propan-2-yloxy)-1H-indazol-5-yl]amino}-5,6,7,8-tetrahydro[1]benzothieno[2,3-d]pyrimidin-7-yl]methanone], CCCOc1cc2[nH]ncc2cc1Nc1ncnc2sc3c(c12)CC[C@H](C(=O)N1CC(C)(O)C1)C3 [Example 95, (3-Hydroxy-3-methylazetidin-1-yl){(7S)-4-[(6-propoxy-1H-indazol-5-yl)amino]-5,6,7,8-tetrahydro[1]benzothieno[2,3-d]pyrimidin-7-yl}methanone] is 23-fold higher in IC50: 0.1 nM for the first, 2.3 nM for the second.

Same assay, conditions: Table 2; ratio of the IC50-value of an R-enantiomer and its corresponding S-enantiomer

Compared with CC(C)Oc1cc2[nH]ncc2cc1Nc1ncnc2sc3c(c12)CC[C@H](C(=O)N(C)C)C3 [Example 78, (7S)—N,N-Dimethyl-4-{[6-(propan-2-yloxy)-1H-indazol-5-yl]amino}-5,6,7,8-tetrahydro[1]benzothieno[2,3-d]pyrimidine-7-carboxamide], CC(C)Oc1cc2[nH]ncc2cc1Nc1ncnc2sc3c(c12)CC[C@H](C(=O)N(C)CC(F)F)C3 [Example 81, (7S)—N-(2,2-Difluoroethyl)-N-methyl-4-{[6-(propan-2-yloxy)-1H-indazol-5-yl]amino}-5,6,7,8-tetrahydro[1]benzothieno[2,3-d]pyrimidine-7-carboxamide] is lower in “Activity-Ratio MKNK1” value: 42.9 for the first, 27.5 for the second.

In the case of CC(C)Oc1cc2[nH]ncc2cc1Nc1ncnc2sc3c(c12)CC[C@H](C(=O)N1CC2(COC2)C1)C3 [Example 88, 2-Oxa-6-azaspiro[3.3]hept-6-yl[(7S)-4-{[6-(propan-2-yloxy)-1H-indazol-5-yl]amino}-5,6,7,8-tetrahydro[1]benzothieno[2,3-d]pyrimidin-7-yl]methanone], the “Activity-Ratio MKNK1” value is reported as 15.0.
